Results taken from PMC2915818 (2010).

Key:
[1] = tested on: Ds26 (DNA, duplex) CAATCGGATCGAATTCGATCCGATTG; assay: competitive dialysis; settings: 185 mM KCl, 185 mM NaCl; sodium phosphate, 1 mM EDTA, pH 7, room temperature; 50 μM DNA, 1 μM compound
[2] = tested on: 24bcl (DNA, G4) CGGGCGCGGGAGGAAGGGGGCGGG; assay: competitive dialysis; settings: 185 mM KCl, 185 mM NaCl; sodium phosphate, 1 mM EDTA, pH 7, room temperature; 50 μM DNA, 1 μM compound
[3] = tested on: cmyc (DNA, G4) GGGGAGGGTGGGGAGGGTGGGGAAGGTGGGG; assay: competitive dialysis; settings: 185 mM KCl, 185 mM NaCl; sodium phosphate, 1 mM EDTA, pH 7, room temperature; 50 μM DNA, 1 μM compound
[4] = tested on: HT24 (DNA, G4) TAGGGTTAGGGTTAGGGTTAGGGT; assay: fluorescence titration, Equispec fit; settings: 185 mM K+, 185 mM Na+ (as KCl, NaCl); sodium phosphate, 1 mM EDTA, pH 7, 25 °C; excitation 252 nm; 0.2 μM compound
[5] = tested on: 24bcl (DNA, G4) CGGGCGCGGGAGGAAGGGGGCGGG; assay: fluorescence titration, Equispec fit; settings: 185 mM K+, 185 mM Na+ (as KCl, NaCl); sodium phosphate, 1 mM EDTA, pH 7, 25 °C; excitation 252 nm; 0.2 μM compound
[6] = tested on: cmyc (DNA, G4) GGGGAGGGTGGGGAGGGTGGGGAAGGTGGGG; assay: fluorescence titration, Equispec fit; settings: 185 mM K+, 185 mM Na+ (as KCl, NaCl); sodium phosphate, 1 mM EDTA, pH 7, 25 °C; excitation 252 nm; 0.2 μM compound
[7] = tested on: TC triplex (DNA, triplex) CCTCCTCTCTTTCCCTTTTTCTTTCTCTCCTCC/GAAAGAGAGGAGG; assay: competitive dialysis; settings: 185 mM KCl, 185 mM NaCl; sodium phosphate, 1 mM EDTA, pH 7, room temperature; 50 μM DNA, 1 μM compound
[8] = tested on: Dickerson (DNA, duplex) CGCGAATTCGCG; assay: fluorescence titration; settings: 185 mM K+, 185 mM Na+ (as KCl, NaCl); sodium phosphate, 1 mM EDTA, pH 7, 25 °C; up to 10 μM DNA, 0.2 μM compound

Structure (SMILES)	binding [1]	binding [2]	binding [3]	log K [4]	log K [5]	log K [6]	binding [7]	binding [8]
CC(=O)NCCN(CC(=O)NCCN(CC(=O)NCCN(CC(=O)NCCCCCCOC(=O)CCC(=O)N(C)CC(N)=O)C(=O)CNC(=O)c1c2ccccc2nc2ccccc12)C(=O)CNC(=O)c1c2ccccc2nc2ccccc12)C(=O)CNC(=O)c1c2ccccc2nc2ccccc12				5.3 ± 0.3	5.3 ± 0.2	4.8 ± 0.5		
CC(=O)NCCN(CC(=O)NCCN(CC(=O)NCCCCCCOC(=O)CCC(=O)N(C)CC(N)=O)C(=O)CNC(=O)c1c2ccccc2nc2ccccc12)C(=O)CNC(=O)c1c2ccccc2nc2ccccc12	no			4.9 ± 0.4	6.8 ± 0.5	5.5 ± 0.3	weak	no
CC(=O)NCCN(CC(=O)NCCN(CC(=O)NCCN(CC(=O)NCCCCCCO)C(=O)CNC(=O)c1c2ccccc2nc2ccccc12)C(=O)CNC(=O)c1c2ccccc2nc2ccccc12)C(=O)CNC(=O)c1c2ccccc2nc2ccccc12		yes				5.3 ± 0.2		

Next, values leading:

binding [1]	binding [2]	binding [3]	log K [4]	log K [5]	log K [6]	binding [7]	binding [8]	Structure (SMILES)
yes								O=C(O)c1c2ccccc2nc2ccccc12
weak	yes	yes						O=C(O)CNC(=O)c1c2ccccc2nc2ccccc12
			4.6 ± 0.5	5.1 ± 0.1	4.9 ± 0.2			CC(=O)NCCN(CC(=O)NCCN(CC(=O)NCCCCCCO)C(=O)CNC(=O)c1c2ccccc2nc2ccccc12)C(=O)CNC(=O)c1c2ccccc2nc2ccccc12
